{"source": "patent US20140194500A1", "about": "(Kookmin University Industry Academic Cooperation Foundation, priority 2013, published 2014)", "key": {"[1]": {"biological_target": "T1, SARS coronavirus helicase nsP13 (Severe acute respiratory syndrome coronavirus, UniProt P0C6X7)", "assay": "biochemical", "settings": "for inhibition at 10 µM: read-out: inhibition of the ATPase activity of nsP13"}, "MCF10A cells [2]": {"system": "MCF10A cells", "assay": "Cytotoxicity: growth of normal breast epithelial MCF10A cells", "settings": "2 μM, counted every 24h for 3 days"}, "HCV NS3h": {"biological_target": "HCV NS3h (Hepatitis C virus genotype 1a, UniProt P27958)", "sequence (P27958 1193-1657)": "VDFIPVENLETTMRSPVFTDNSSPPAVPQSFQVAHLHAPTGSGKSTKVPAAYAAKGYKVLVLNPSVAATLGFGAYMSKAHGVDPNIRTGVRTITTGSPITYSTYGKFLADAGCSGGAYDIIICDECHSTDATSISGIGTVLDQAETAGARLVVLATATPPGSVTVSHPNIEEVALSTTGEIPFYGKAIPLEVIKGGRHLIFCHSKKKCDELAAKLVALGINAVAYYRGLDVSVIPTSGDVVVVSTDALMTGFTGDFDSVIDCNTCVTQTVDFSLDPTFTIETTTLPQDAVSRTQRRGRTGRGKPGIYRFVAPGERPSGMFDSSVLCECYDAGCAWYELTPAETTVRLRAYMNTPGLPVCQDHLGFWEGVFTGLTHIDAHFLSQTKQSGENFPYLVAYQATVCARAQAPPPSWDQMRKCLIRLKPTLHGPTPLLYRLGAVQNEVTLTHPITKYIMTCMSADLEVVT", "assay_type": "biochemical"}, "[3]": {"biological_target": "T1, SARS coronavirus helicase nsP13", "assay_type": "biochemical"}, "MCF10A cells [4]": {"system": "MCF10A cells", "settings": "human"}, "HCV viral helicase, NS3h": {"biological_target": "HCV viral helicase, NS3h (Hepatitis C virus genotype 1a, UniProt P27958)", "sequence (P27958 1193-1657)": "as above", "assay_type": "biochemical"}}, "note": "Like-named read-outs stand apart in the source and are kept apart here.", "data": [{"compound": "CC1(C)CC[C@]2(C)CC=C3[C@]4(C)CC[C@H]5C(C)(C)[C@@H](O)CC[C@]5(C)[C@H]4CC[C@@]3(C)[C@@H]2C1", "note": "[No. 58, taraxerol]", "values": [{"measurement": "inhibition at 10 µM", "setting": "[1]", "value": "~20", "unit": "%"}]}, {"compound": "O=c1cc(-c2ccc(O)cc2)oc2cc(O)c(O)c(O)c12", "note": "[No. 8, scutellarein]", "values": [{"measurement": "effect on the growth of MCF10A cells (viable cell number)", "setting": "MCF10A cells [2]", "value": "did not affect the growth of MCF10A cells"}, {"measurement": "IC50", "setting": "[1]", "value": "860 ± 480", "unit": "nM"}, {"measurement": "inhibition at 10 µM", "setting": "[1]", "value": "> 90", "unit": "%"}]}, {"compound": "O=c1c(O)c(-c2cc(O)c(O)c(O)c2)oc2cc(O)cc(O)c12", "note": "[No. 6, myricetin]", "values": [{"measurement": "suppression of the ATPase activity of the HCV viral helicase", "setting": "HCV NS3h", "value": "did not seem to suppress the ATPase activity of HCV helicase protein"}, {"measurement": "inhibition of the dsDNA-unwinding activity of SARS helicase, nsP13", "setting": "[3]", "value": "not inhibition of helicase activity"}, {"measurement": "effect on the growth of MCF10A cells (viable cell number)", "setting": "MCF10A cells [4]", "value": "did not affect the growth of MCF10A cells"}, {"measurement": "inhibition of the DNA unwinding activity of HCV viral helicase", "setting": "HCV viral helicase, NS3h", "value": "did not suppress the helicase activity of HCV virus"}]}, {"compound": "O=c1cc(-c2ccc(O)c(-c3c(O)cc(O)c4c(=O)cc(-c5ccc(O)cc5)oc34)c2)oc2cc(O)cc(O)c12", "note": "[No. 18, amentoflavone]", "values": [{"measurement": "inhibition at 10 µM", "setting": "[1]", "value": "~20", "unit": "%"}]}, {"compound": "Diosmetin-7-O-Glc-Xyl [No. 35]", "values": [{"measurement": "inhibition of the ATPase activity of nsP13", "setting": "[1]; 10 µM", "value": "around 20%"}]}]}
